# Source: US20100291204A1, “COMBINATION OF A LONG-ACTING HYPNOTIC AGENT AND A SHORT-ACTING HYPNOTIC AGENT AND THERAPEUTIC USE THEREOF” (SANOFI-AVENTIS, priority 2005, published 2010)
# Marks after values point to notes of the source that are not given here.
# Columns and labels:
# male Sprague-Dawley rats = experiment: Effects on sleep in rats (6 hours of recording, day 1 versus vehicle day 0); assay type: in vivo, rat; conditions: for Lag time of appearance of NREM sleep: change versus vehicle control; for Duration of NREM sleep / Duration of sleep: total over 6 hours of recording
# Experimental: For this study, four groups of male Sprague-Dawley rats are used, each group comprising from 5 to 9 rats.
# Group A receives eplivanserin (oral route, hemifumarate) at a dose of 3 mg/kg p.o.
# Group B receives zolpidem (oral route, hemitartrate) at a dose of 3 mg/kg p.o.
# Group C receives (orally) in combination 3 mg/kg p.o. of eplivanserin hemifumarate and 3 mg/kg of zolpidem hemitartrate, the two compounds being administered with an interval of 5 minutes.
# Finally, group D receives zolpidem (oral route, hemitartrate) at a dose of 10 mg/kg p.o.
# The data are recorded on day 0 (control day), when the animals receive only a vehicle (distilled water and methylcellulose) and on day 1 when the animals receive the active principles.
# The data are recorded for 6 hours each day, the active principles being administered 15 minutes before the start of recording.
# In Table I, the results are expressed as percentages relative to the control groups receiving only the vehicle, unless otherwise indicated.
# Duration of sleep: total duration of sleep during the 6 hours of recording. Duration of NREM sleep: total duration of NREM sleep during the 6 hours of recording. Lag time of appearance of NREM sleep: time measured from the start of the recording up to the moment of the first period of NREM sleep. Mean duration of the periods of NREM sleep: duration of NREM sleep/number of periods of NREM sleep during the 6 hours of recording.
# [1] = cited from earlier work; for bioavailability: in vivo
# [2] = Group B: zolpidem hemitartrate 3 mg/kg p.o., relative to vehicle control
# [3] = Group D: zolpidem hemitartrate 10 mg/kg p.o., 6 hours of recording, relative to vehicle control
# [4] = Group D: zolpidem hemitartrate 10 mg/kg p.o., relative to vehicle control
Compound,"Lag time of appearance of NREM sleep (male Sprague-Dawley rats; Group A: eplivanserin hemifumarate 3 mg/kg p.o., from start of recording to first period of NREM sleep)",bioavailability [1] [%],"Mean duration of the periods of NREM sleep (male Sprague-Dawley rats; Group B: zolpidem hemitartrate 3 mg/kg p.o., 6 hours of recording, relative to vehicle control) [%]","Lag time of appearance of NREM sleep (male Sprague-Dawley rats; Group B: zolpidem hemitartrate 3 mg/kg p.o., from start of recording to first period of NREM sleep) [min]",Duration of NREM sleep (male Sprague-Dawley rats; [2]),Duration of sleep (male Sprague-Dawley rats; [2]) [%],Mean duration of the periods of NREM sleep (male Sprague-Dawley rats; [3]),Mean number of periods of NREM sleep (male Sprague-Dawley rats; [3]),Lag time of appearance of NREM sleep (male Sprague-Dawley rats; Group D: zolpidem hemitartrate 10 mg/kg p.o.) [min],Duration of NREM sleep (male Sprague-Dawley rats; [4]),Duration of sleep (male Sprague-Dawley rats; [4]) [%**],duration of action ([1]; mean dose between 5 and 10 mg in a conventional formulation)
CN(C)CCO/N=C(/C=C/c1ccc(O)cc1)c1ccccc1F [eplivanserin],+0.6 min,80,,,,,,,,,,
Cc1ccc(-c2nc3ccc(C)cn3c2CC(=O)N(C)C)cc1 [zolpidem],,70,−15,-6,+4%,−2,+31%**,+1%,-1.2,+33%**,−20,up to 6 hours
